Our source for the EC50 and IC50 values is patent publication US11702414B2, “Thiadiazole IRAK4 inhibitors” (Gilead Sciences, Inc., priority 2018, dated 2023).

The test system of one experiment is TNFα. The experiment is described as follows: IRAK4 Monocyte TNFα Cell Based Assay. More on the design: species or system human. Particulars: Homo sapiens, Monocyte, human monocytes; second part of Table 2 (compounds 33-343); unit inferred; read-out: EC50MONO TNF HTRF.
Another experiment addresses IRAK4 enzyme (Homo sapiens (Human), UniProt Q9NWZ3). Description: IRAK4 Biochemical Assay (TR-FRET, STK1 KinEASE). The method, then: IRAK4 enzyme (Carna Biosciences, Chuo-ku, Kobe, Japan) activity was measured by detecting phosphorylated peptide substrate formation using an antibody against the phosphorylated peptide substrate. This is a time-resolved fluorescence resonance energy transfer (TR-FRET) immunoassay, based on the STK1 KinEASE Assay (Cisbio, Bedford, Mass.). The assay was designed as a simple two-step, endpoint assay (a 5 μl enzyme reaction followed by 5 μl stop and detect Solution) performed in ProxiPlate-384 Plus plates (Perkin Elmer, Waltham, Mass.). […] Compounds diluted in DMSO were spotted into 384 well plates using a Labcyte® Echo 550 Liquid Handling System prior to addition of IRAK4 enzyme and peptide substrate. Reaction solutions were delivered using a Multi-Flo (Bio-Tek Instruments). The enzyme and peptide solution was incubated with compound for 15 minutes at room temp before the reaction was initiated by the addition of ATP. The standard 5 μl reaction mixture contained 500 μM ATP, 2 μM peptide (STK1 Peptide), 0.75 nM of IRAK4 in reaction buffer (50 mM HEPES, pH 7.0, 0.02% NaN3, 0.01% BSA, 0.1 mM Orthovanadate, 5 mM MgCl2, 0.025% NP-40, 1 mM DTT). After 120 min of incubation at room temperature, 5 μl of Stop and Detect Solution (1:100 Cryptate labeled anti-phosphorylated peptide antibody solution and 125 nM Tracer in a 50 mM HEPES pH 7.0 detection buffer containing sufficient EDTA) was added. The plate was then further incubated for 60 minutes at room temperature and read on Envision 2103 Multilabeled reader (PerkinElmer) with excitation/emission/FRET emission at 340 nm/615 nm/665 nm, respectively. Fluorescence intensities at 615 nm and 665 nm emission wavelengths were expressed as a ratio (665 nm/615 nm). Percentage of inhibition was calculated as below: % Inhibition=100×(RatioSample−Ratio0% Inhibition)/(Ratio100% Inhibition−Ratio0% Inhibition)
The 0% inhibition value comes from control wells lacking inhibitor.
A general note: TR-FRET usually uses a lanthanide donor and a delayed reading to cut background.

Sequence of IRAK4 enzyme (Q9NWZ3 whole entry): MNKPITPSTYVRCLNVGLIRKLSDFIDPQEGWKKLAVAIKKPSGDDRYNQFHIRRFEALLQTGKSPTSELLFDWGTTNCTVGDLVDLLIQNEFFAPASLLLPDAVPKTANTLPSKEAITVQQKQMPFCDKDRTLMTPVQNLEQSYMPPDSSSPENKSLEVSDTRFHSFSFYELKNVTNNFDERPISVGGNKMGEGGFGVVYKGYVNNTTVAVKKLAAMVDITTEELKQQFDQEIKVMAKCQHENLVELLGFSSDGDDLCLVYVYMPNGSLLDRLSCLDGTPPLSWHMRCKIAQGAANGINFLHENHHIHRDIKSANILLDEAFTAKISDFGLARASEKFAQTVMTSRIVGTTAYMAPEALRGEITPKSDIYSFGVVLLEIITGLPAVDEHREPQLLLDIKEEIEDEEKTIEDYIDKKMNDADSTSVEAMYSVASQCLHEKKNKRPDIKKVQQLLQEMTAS

As to `CC(=O)N[C@H]1CC[C@@H](c2nnc(-c3cnc(-c4ccc5cc(C#N)cnn45)cc3NC(C)C)s2)OC1` [Example 84, N-((3S,6S)-6-(5-(6-(3-cyanopyrrolo[1,2-b]pyridazin-7-yl)-4-(isopropylamino)pyridin-3-yl)-1,3,4-thiadiazol-2-yl)tetrahydro-2H-pyran-3-yl)acetamide], in the experiment with TNFα, the EC50 was determined as 8.6 nM. The IC50 (as a rule, the concentration that gives 50% inhibition) against IRAK4 enzyme came to 0.47 nM.
For the compound `CC(=O)NC1CCC2(CC1)CN(c1nnc(-c3cnc(-c4ccc5cc(C#N)cnn45)cc3NC3(C)COC3)s1)C2` [Example 99, N-(2-(5-(6-(3-cyanopyrrolo[1,2-b]pyridazin-7-yl)-4-((3-methyloxetan-3-yl)amino)pyridin-3-yl)-1,3,4-thiadiazol-2-yl)-2-azaspiro[3.5]nonan-7-yl)acetamide], the EC50 in the experiment with TNFα was determined as 5.8 nM. In addition, 0.63 nM corresponded to half-maximal inhibition on IRAK4 enzyme (IC50).
Take `CC(C)Nc1cc(-c2ccc3cc(C#N)cnn23)ncc1-c1nnc(C2CCN(C3COC3)CC2)s1` [Example 138, 7-(4-(isopropylamino)-5-(5-(1-(oxetan-3-yl)piperidin-4-yl)-1,3,4-thiadiazol-2-yl)pyridin-2-yl)pyrrolo[1,2-b]pyridazine-3-carbonitrile]: the EC50 in the experiment with TNFα was 15 nM. For the same compound, it took 0.61 nM to reach half-maximal inhibition against IRAK4 enzyme (IC50).
As to `CC(C)Nc1cc(-c2ccc3cc(C#N)cnn23)ncc1-c1nnc(N2CC3CCC(C2)C3(O)C(F)(F)F)s1` (stereo not drawn) [Example 159, 7-(5-(5-(8-hydroxy-8-(trifluoromethyl)-3-azabicyclo[3.2.1]octan-3-yl)-1,3,4-thiadiazol-2-yl)-4-(isopropylamino)pyridin-2-yl)pyrrolo[1,2-b]pyridazine-3-carbonitrile], the EC50 in the experiment on TNFα amounted to 25.7 nM. The same compound had a half-inhibitory concentration (IC50) on IRAK4 enzyme of 6.38 nM.
The matching figures for `CC(C)Nc1cc(-c2ccc3cc(C#N)cnn23)ncc1-c1nnc(N2CC3(CCNC3=O)C2)s1` [Example 164, 7-(4-(isopropylamino)-5-(5-(5-oxo-2,6-diazaspiro[3.4]octan-2-yl)-1,3,4-thiadiazol-2-yl)pyridin-2-yl)pyrrolo[1,2-b]pyridazine-3-carbonitrile]: 17.5 nM and 0.55 nM.
Regarding `CC(C)Nc1cc(-c2ccc3cc(C#N)cnn23)ncc1-c1nnc(N2CCC(O)(C(F)(F)F)CC2)s1` [Example 172, 7-(5-(5-(4-hydroxy-4-(trifluoromethyl)piperidin-1-yl)-1,3,4-thiadiazol-2-yl)-4-(isopropylamino)pyridin-2-yl)pyrrolo[1,2-b]pyridazine-3-carbonitrile], in the experiment with TNFα, the EC50 amounted to 34.4 nM. Besides, the IC50 against IRAK4 enzyme is 2.99 nM.
As for `C[C@H](C#N)Nc1cc(-c2ccc3cc(C#N)cnn23)ncc1-c1nnc(N2CCC(C)(O)CC2)s1` [Example 180, (R)-7-(4-((1-cyanoethyl)amino)-5-(5-(4-hydroxy-4-methylpiperidin-1-yl)-1,3,4-thiadiazol-2-yl)pyridin-2-yl)pyrrolo[1,2-b]pyridazine-3-carbonitrile], the EC50 with TNFα is 6.8 nM. The compound also yielded an IC50 on IRAK4 enzyme of 0.4 nM.
As to `CC1(O)CCN(c2nnc(-c3cnc(-c4ccc5cc(C#N)cnn45)cc3NC3(C)COC3)s2)CC1` [Example 181, 7-(5-(5-(4-hydroxy-4-methylpiperidin-1-yl)-1,3,4-thiadiazol-2-yl)-4-((3-methyloxetan-3-yl)amino)pyridin-2-yl)pyrrolo[1,2-b]pyridazine-3-carbonitrile], in the experiment with TNFα, the EC50 was 18.4 nM. The same compound returned an IC50 at IRAK4 enzyme of 0.36 nM.
The matching figures for `CC(C)Nc1cc(-c2ccc3cc(C#N)cnn23)ncc1-c1nnc(N2CC[C@@](C)(O)[C@@H](F)C2)s1` [Example 186, 7-(5-(5-((3S,4R)-3-fluoro-4-hydroxy-4-methylpiperidin-1-yl)-1,3,4-thiadiazol-2-yl)-4-(isopropylamino)pyridin-2-yl)pyrrolo[1,2-b]pyridazine-3-carbonitrile]: 8.4 nM and 0.95 nM.
